# Values of other authors in US20030008844A1, “Use of sulodexide for the treatment of inflammatory bowel disease” (Keryx Biopharmaceuticals, Inc., priority 2001, published 2003).
# Key:
# mild to moderate UC = details: oral
# ulcerative colitis = details: placebo-controlled trial
# perianal Crohn's disease = details: uncontrolled trials
# [1] = test system: steroid-dependent chronically active Crohn's disease; details: placebo-controlled trial
smiles,measurement,setting,value
O=C(O)c1cc(/N=N/c2ccc(S(=O)(=O)Nc3ccccn3)cc2)ccc1O [sulfasalazine],efficacy in treatment of mild to moderate UC,mild to moderate UC,superior to placebo and similar or superior to steroid enemas
"CN1CCCC1c1cccnc1 (stereo not shown) [nicotine, Nicotine]",maintaining remission of ulcerative colitis,ulcerative colitis,ineffective
Cc1ncc([N+](=O)[O-])n1CCO [metronidazole],patients showing improvements,perianal Crohn's disease,practically all patients showed improvements
"CN(Cc1cnc2nc(N)nc(N)c2n1)c1ccc(C(=O)N[C@@H](CCC(=O)O)C(=O)O)cc1 [methotrexate, Methotrexate]",rates of clinical remission,[1],substantially improved
